Results on 21 compounds are retold here after US20080306056A1, “PYRAZOLE-DERIVATIVES AS FACTOR Xa INHIBITORS” (SANOFI-AVENTIS DEUTSCHLAND GMBH, priority 2002, published 2008).

The target of this test is T1, human factor Xa (Homo sapiens, UniProt P00742).
T1 construct: 25 μl human factor Xa (Enzyme Research Laboratories, Inc; South Bend, Ind.); purchased Enzyme Research Laboratories, Inc; South Bend, Ind
T1 sequence (P00742 235-488 limits assumed): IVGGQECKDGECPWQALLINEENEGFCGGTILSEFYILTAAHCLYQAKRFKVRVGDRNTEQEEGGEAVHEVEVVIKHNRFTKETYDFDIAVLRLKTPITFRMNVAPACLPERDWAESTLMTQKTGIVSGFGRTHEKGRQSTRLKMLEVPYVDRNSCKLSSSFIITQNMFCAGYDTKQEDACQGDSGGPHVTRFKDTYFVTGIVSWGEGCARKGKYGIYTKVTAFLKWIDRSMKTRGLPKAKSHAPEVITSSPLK
T1 sequence (P00742 41-179 partner limits assumed): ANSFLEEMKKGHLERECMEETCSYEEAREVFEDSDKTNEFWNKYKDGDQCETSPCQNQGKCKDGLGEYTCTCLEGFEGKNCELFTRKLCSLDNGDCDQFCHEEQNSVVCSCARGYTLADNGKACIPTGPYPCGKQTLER
In words: Factor Xa assay (chromogenic, purified enzyme). To be noted: inhibition constant for factor Xa; chromogenic substrate S-2765 140 μM, enzyme 0.5 nM, 25° C., pH 7.8; Ki=IC50/{1+(substrate concentration/Km)}; read-out: Ki(FXa). It counts as biochemical. An excerpt: The ability of the compound of formulae I, Ib and Ic to inhibit factor Xa or factor VIIa or other enzymes like thrombin, plasmin, or trypsin can be assessed by determining the concentration of the compound of the formulae I, Ib and Ic that inhibits enzyme activity by 50%, i.e. the IC50 value, which was related to the inhibition constant Ki. Purified enzymes were used in chromogenic assays. The concentration of inhibitor that causes a 50% decrease in the rate of substrate hydrolysis was determined by linear regression after plotting the relative rates of hydrolysis (compared to the uninhibited control) versus the log of the concentration of the compound of formulae I, Ib and Ic. For calculating the inhibition constant Ki, the IC50 value was corrected for competition with substrate using the formula wherein Km is the Michaelis-Menten constant (Chen and Prusoff, Biochem.
Ki=IC50/{1+(substrate concentration/Km)}
Pharmacol. 22 (1973) 3099-3108; I. H. Segal, Enzyme Kinetics, 1975, John Wiley & Sons, New York, 100-125; which were incorporated herein by reference).
The IC50 was determined by combining in appropriate wells of a Costar half-area microtiter plate 25 μl human factor Xa (Enzyme Research Laboratories, Inc.; South Bend, Ind.) in TBS-PEG; 40 μl 10% (v/v) DMSO in TBS-PEG (uninhibited control) or various concentrations of the compound to be tested diluted in 10% (v/v) DMSO in TBS-PEG; and substrate S-2765 (N(α)-benzyloxycarbonyl-D-Arg-Gly-L-Arg-p-nitroanilide; Kabi Pharmacia, Inc.; Franklin, Ohio) in TBS-PEG.
The assay was performed by pre-incubating the compound of formulae I, Ib and Ic plus enzyme for 10 min. Then the assay was initiated by adding substrate to obtain a final volume of 100 μl. The initial velocity of chromogenic substrate hydrolysis was measured by the change in absorbance at 405 nm using a Bio-tek Instruments kinetic plate reader (Ceres UV900HDi) at 25° C. during the linear portion of the time course (usually 1.5 min after addition of substrate). The enzyme concentration was 0.5 nM and substrate concentration was 140 μM.
The inhibitory activity towards factor VIIa/tissue factor activity was determined using a chromogenic assay essentially as described previously (J. A. Ostrem et al., Biochemistry 37 (1998) 1053-1059 which was incorporated herein by reference). Kinetic assays were conducted at 25° C. in half-area microtiter plates (Costar Corp., Cambridge, Mass.) using a kinetic plate reader (Molecular Devices Spectramax 250). A typical assay consisted of 25 μl human factor VIIa and TF (5 nM and 10 nM, respective final concentration) combined with 40 μl of inhibitor dilutions in 10% DMSO/TBS-PEG buffer (50 mM Tris, 15 mM NaCl, 5 mM CaCl2, 0.05% PEG 8000, pH 8.15). Following a 15 minute preincubation period, the assay was initiated by the addition of 35 μl of the chromogenic substrate S-2288 (D-Ile-Pro-Arg-p-nitroanilide, Pharmacia Hepar Inc., 500 μM final concentration).
As for `CC(C)N1CCC(NC(=O)c2cc(C(=O)OCCN3CCNC3=O)nn2Cc2cc(-c3ccc(Cl)s3)on2)CC1` [Example 32, 1-[5-(5-Chloro-thiophen-2-yl)-isoxazol-3-ylmethyl]-5-(1-isopropyl-piperidin-4-ylcarbamoyl)-1H-pyrazole-3-carboxylic acid 2-(2-oxo-imidazolidin-1-yl)-ethyl ester], the Ki came to 45 nM. As for `CC(C)N1CCC(NC(=O)c2cc(C(C)(C)C)nn2Cc2cc(-c3ccc(Cl)s3)on2)CC1` [Example 9, 5-tert-Butyl-2-[5-(5-chloro-thiophen-2-yl)-isoxazol-3-ylmethyl]-2H-pyrazole-3-carboxylic acid (1-isopropyl-piperidin-4-yl)-amide], the Ki was 332 nM. With `Cc1cc(C(=O)NC2CCN(C(C)C)CC2)n(Cc2cc(-c3ccc(Cl)s3)on2)n1` [Example 3, 2-[5-(5-Chloro-thiophen-2-yl)-isoxazol-3-ylmethyl]-5-methyl-2H-pyrazole-3-carboxylic acid (1-isopropyl-piperidin-4-yl)-amide], the Ki came to 112 nM. Under `CONC(=O)c1cc(C(=O)NC2CCN(C(C)C)CC2)n(Cc2cc(-c3ccc(Cl)s3)on2)n1` [Example 59, 1-[5-(5-Chloro-thiophen-2-yl)-isoxazol-3-ylmethyl]-1H-pyrazole-3,5-dicarboxylic acid 5-[(1-isopropyl-piperidin-4-yl)-amide] 3-(methoxy-amide)] stands 94 nM; under `CC(C)N1CCC(NC(=O)c2cc(C(=O)N3CCSC3)nn2Cc2cc(-c3ccc(Cl)s3)on2)CC1` [Example 78, 2-[5-(5-Chloro-thiophen-2-yl)-isoxazol-3-ylmethyl]-5-(thiazolidine-3-carbonyl)-2H-pyrazole-3-carboxylic acid (1-isopropyl-piperidin-4-yl)-amide], 144 nM. Under `COCCNC(=O)c1cc(C(=O)NC2CCN(C(C)C)CC2)n(Cc2cc(-c3ccc(Cl)s3)on2)n1` [Example 47, 1-[5-(5-Chloro-thiophen-2-yl)-isoxazol-3-ylmethyl]-1H-pyrazole-3,5-dicarboxylic acid 5-[(1-isopropyl-piperidin-4-yl)-amide] 3-[(2-methoxy-ethyl)-amide]] stands 86 nM; under `CC(C)N1CCC(NC(=O)c2cc(C(=O)NCCN3CCOCC3)nn2Cc2cc(-c3ccc(Cl)s3)on2)CC1` [Example 70, 1-[5-(5-Chloro-thiophen-2-yl)-isoxazol-3-ylmethyl]-1H-pyrazole-3,5-dicarboxylic acid 5-[(1-isopropyl-piperidin-4-yl)-amide] 3-[(2-morpholin-4-yl-ethyl)-amide]], 182 nM; under `CC(C)N1CCC(NC(=O)c2cc(C(=O)NC3=NCCO3)nn2Cc2cc(-c3ccc(Cl)s3)on2)CC1` [Example 68, 1-[5-(5-Chloro-thiophen-2-yl)-isoxazol-3-ylmethyl]-1H-pyrazole-3,5-dicarboxylic acid 3-[(4,5-dihydro-oxazol-2-yl)-amide] 5-[(1-isopropyl-piperidin-4-yl)-amide]], 99 nM.

Take `CC(C)N1CCC(NC(=O)c2cc(C(=O)NCCC(=O)O)nn2Cc2cc(-c3ccc(Cl)s3)on2)CC1` [Example 58, 3-{[1-[5-(5-Chloro-thiophen-2-yl)-isoxazol-3-ylmethyl]-5-(1-isopropyl-piperidin-4-ylcarbamoyl)-1H-pyrazole-3-carbonyl]-amino}-propionic acid]: the Ki stood at 63 nM. Then `CCCc1c(C#N)c(C(=O)NC2CCN(C(C)C)CC2)nn1Cc1cc(-c2ccc(Cl)s2)on1` [Example 11, 1-[5-(5-Chloro-thiophen-2-yl)-isoxazol-3-ylmethyl]-4-cyano-5-propyl-1H-pyrazole-3-carboxylic acid (1-isopropyl-piperidin-4-yl)-amide], with 83 nM. Under `CC(C)N1CCC(NC(=O)c2cc(C(=O)NC3CCS(=O)(=O)C3)nn2Cc2cc(-c3ccc(Cl)s3)on2)CC1` (stereo not drawn) [Example 75, 1-[5-(5-Chloro-thiophen-2-yl)-isoxazol-3-ylmethyl]-1H-pyrazole-3,5-dicarboxylic acid 3-[(1,1-dioxo-tetrahydro-1-thiophen-3-yl)-amide] 5-[(1-isopropyl-piperidin-4-yl)-amide]] stands 76 nM; under `CC(C)N1CCC(NC(=O)c2cc(C(=O)N3CCC[C@H]3CO)nn2Cc2cc(-c3ccc(Cl)s3)on2)CC1` [Example 64, 2-[5-(5-Chloro-thiophen-2-yl)-isoxazol-3-ylmethyl]-5-(2S,2-hydroxymethyl-pyrrolidine-1-carbonyl)-2H-pyrazole-3-carboxylic acid (1-isopropyl-piperidin-4-yl)-amide], 90 nM; under `CC(C)N1CCC(NC(=O)c2cc(C(=O)NC(C(=O)O)C(F)(F)F)nn2Cc2cc(-c3ccc(Cl)s3)on2)CC1` (stereo not drawn) [Example 79, 2-{[1-[5-(5-Chloro-thiophen-2-yl)-isoxazol-3-ylmethyl]-5-(1-isopropyl-piperidin-4-ylcarbamoyl)-1H-pyrazole-3-carbonyl]-amino}-3,3,3-trifluoro-propionic acid], 80 nM.

Consider `COC[C@H]1CC[C@H](COC)N1C(=O)c1cc(C(=O)NC2CCN(C(C)C)CC2)n(Cc2cc(-c3ccc(Cl)s3)on2)n1` [Example 67, 5-(2R,5R,2,5-Bis-methoxymethyl-pyrrolidine-1-carbonyl)-2-[5-(5-chloro-thiophen-2-yl)-isoxazol-3-ylmethyl]-2H-pyrazole-3-carboxylic acid (1-isopropyl-piperidin-4-yl)-amide], for which the Ki turned out to be 420 nM. Under `CCCc1nn(Cc2cc(-c3ccc(Cl)s3)on2)c(C(=O)NC2CCN(C(C)C)CC2)c1C#N` [Example 10, 2-[5-(5-Chloro-thiophen-2-yl)-isoxazol-3-ylmethyl]-4-cyano-5-propyl-2H-pyrazole-3-carboxylic acid (1-isopropyl-piperidin-4-yl)-amide] stands 41 nM; under `CC(C)N1CCC(NC(=O)c2nn(Cc3cc(-c4ccc(Cl)s4)on3)cc2C#N)CC1` [Example 56, 1-[5-(5-Chloro-thiophen-2-yl)-isoxazol-3-ylmethyl]-4-cyano-1H-pyrazole-3-carboxylic acid (1-isopropyl-piperidin-4-yl)-amide], 144 nM.

Consider `CC(C)N1CCC(NC(=O)c2cc(C(=O)NC[Si](C)(C)C)nn2Cc2cc(-c3ccc(Cl)s3)on2)CC1` [Example 80, 1-[5-(5-Chloro-thiophen-2-yl)-isoxazol-3-ylmethyl]-1H-pyrazole-3,5-dicarboxylic acid 5-[(1-isopropyl-piperidin-4-yl)-amide] 3-trimethylsilanylmethyl-amide], for which the Ki was found to be 149 nM. As to `O=C(NC1CCN(c2ccncc2)CC1)c1cc(-c2cccs2)nn1Cc1cc(-c2ccc(Cl)s2)on1` [Example 18, 2-[5-(5-Chloro-thiophen-2-yl)-isoxazol-3-ylmethyl]-5-thiophen-2-yl-2H-pyrazole-3-carboxylic acid (3,4,5,6-tetrahydro-2H-[1,4′]bipyridinyl-4-yl)-amide], the Ki worked out at 205 nM.

`CC(C)N1CCC(NC(=O)c2cc(C(=O)NC#N)nn2Cc2cc(-c3ccc(Cl)s3)on2)CC1` [Example 49, 2-[5-(5-Chloro-thiophen-2-yl)-isoxazol-3-ylmethyl]-5-(cyanamide-1-carbonyl)-2H-pyrazole-3-carboxylic acid (1-isopropyl-piperidin-4-yl)-amide]: the inhibitory constant (Ki) came to 40 nM. As to `CC(C)N1CCC(NC(=O)c2c(-c3ccc(Cl)cc3Cl)cnn2Cc2cc(-c3ccc(Cl)s3)on2)CC1` [Example 7, 2-[5-(5-Chloro-thiophen-2-yl)-isoxazol-3-ylmethyl]-4-(2,4-dichloro-phenyl)-2H-pyrazole-3-carboxylic acid (1-isopropyl-piperidin-4-yl)-amide], the Ki was 293 nM.

`COCCOCCOc1cc(C(=O)NC2CCN(C(C)C)CC2)n(CC(=O)Nc2ccc(Cl)cn2)n1` [Example 104, 2-[(5-Chloro-pyridin-2-ylcarbamoyl)-methyl]-5-[2-(2-methoxy-ethoxy)-ethoxy]-2H-pyrazole-3-carboxylic acid (1-isopropyl-piperidin-4-yl)-amide]: the Ki amounted to 25 nM.

In general, Ki refers to a dissociation constant, usually derived from enzyme kinetics or from competition with a known ligand.
